Earlier results, collected in PubChem BioAssay AID1259409 (Chemical Carcinogenesis Research Information System (CCRIS), 2018).

System: rodent chemically induced tumor inhibition, incidence and multiplicity
Assay: CCRIS tumor inhibitor studies
Conditions: Dose [Inhibitor]: 0, Route [Inhibitor]: ORAL, Species: RAT

Structure (SMILES): CC1=C(CC(=O)O)c2cc(F)ccc2/C1=C\c1ccc(S(C)(=O)=O)cc1
- tumour outcome (control, treated, inhibition, significance) (Carcinogen: 1-METHYL-1-NITROSOUREA, 684-93-5, 0.03% IN A PURIFIED HIGH-FAT (24.6%) DIET FOR 37 WK BEGINNING 1 WK POST CARCINOGEN DOSE (STUDY DURATION: 38 WK), Strain/Sex: SPRAGUE-DAWLEY/FEMALE, Target Tissue: Type of Lesion: MAMMARY GLAND: CARCINOMA, Dose [Carcinogen]: 12.5 MG/KG BW ONCE, Promoter: NONE USED): 30%, 12%, 60%, p<0.05
- tumour outcome (control, treated, inhibition, significance) (Carcinogen: 1-METHYL-1-NITROSOUREA, 684-93-5, 0.03% IN DIET FOR DURATION OF STUDY BEGINNING 7 D POST CARCINOGEN DOSE (STUDY DURATION: 24 WK), Strain/Sex: SPRAGUE-DAWLEY/FEMALE, Target Tissue: Type of Lesion: MAMMARY GLAND: ADENOCARCINOMA, Dose [Carcinogen]: 50 MG/KG ONCE, Promoter: NONE USED): 93%, 93%, 0%, not significant
- tumour outcome (control, treated, inhibition, significance) (Carcinogen: 1-METHYL-1-NITROSOUREA, 684-93-5, 0.06% IN A PURIFIED HIGH-FAT (24.6%) DIET FOR 37 WK BEGINNING 1 WK POST CARCINOGEN DOSE (STUDY DURATION: 38 WK), Strain/Sex: SPRAGUE-DAWLEY/FEMALE, Target Tissue: Type of Lesion: MAMMARY GLAND: CARCINOMA, Dose [Carcinogen]: 12.5 MG/KG BW ONCE, Promoter: NONE USED): 30%, 16%, 47%, p<0.05
- tumour outcome (control, treated, inhibition, significance) (Carcinogen: 1-METHYL-1-NITROSOUREA, 684-93-5, 0.06% IN DIET FOR DURATION OF STUDY BEGINNING 7 D POST CARCINOGEN DOSE (STUDY DURATION: 24 WK), Strain/Sex: SPRAGUE-DAWLEY/FEMALE, Target Tissue: Type of Lesion: MAMMARY GLAND: ADENOCARCINOMA, Dose [Carcinogen]: 50 MG/KG ONCE, Promoter: NONE USED): 93%, 72%, 23%, p<0.05
- tumour outcome (control, treated, inhibition, significance) (Carcinogen: AZOXYMETHANE, 25843-45-2, 500 PPM IN DIET FOR 29 WK BEGINNING 1 WK POST CARCINOGEN TREATMENT (STUDY DURATION: 32 WK), Strain/Sex: F344/MALE, Target Tissue: Type of Lesion: COLON: ADENOMA, Dose [Carcinogen]: 15 MG/KG BW 1/WK FOR 2 WK, Promoter: NONE USED): 77%, 60%, 22%, not significant
- tumour outcome (control, treated, inhibition, significance) (Carcinogen: AZOXYMETHANE, 25843-45-2, 500 PPM IN DIET FOR 29 WK BEGINNING 1 WK POST CARCINOGEN TREATMENT (STUDY DURATION: 32 WK), Strain/Sex: F344/MALE, Target Tissue: Type of Lesion: COLON: CARCINOMA, Dose [Carcinogen]: 15 MG/KG BW 1/WK FOR 2 WK, Promoter: NONE USED): 53%, 63%, -19%, not significant
- tumour outcome (control, treated, inhibition, significance) (Carcinogen: AZOXYMETHANE, 25843-45-2, 1000 PPM IN DIET FOR 29 WK BEGINNING 1 WK POST CARCINOGEN TREATMENT (STUDY DURATION: 32 WK), Strain/Sex: F344/MALE, Target Tissue: Type of Lesion: COLON: ADENOMA, Dose [Carcinogen]: 15 MG/KG BW 1/WK FOR 2 WK, Promoter: NONE USED): 77%, 40%, 48%, p<0.05
- tumour outcome (control, treated, inhibition, significance) (Carcinogen: AZOXYMETHANE, 25843-45-2, 1000 PPM IN DIET FOR 29 WK BEGINNING 1 WK POST CARCINOGEN TREATMENT (STUDY DURATION: 32 WK), Strain/Sex: F344/MALE, Target Tissue: Type of Lesion: COLON: CARCINOMA, Dose [Carcinogen]: 15 MG/KG BW 1/WK FOR 2 WK, Promoter: NONE USED): 53%, 37%, 30%, not significant
- tumour outcome (control, treated, inhibition, significance) (Carcinogen: AZOXYMETHANE, 25843-45-2, 2000 PPM IN DIET FOR 29 WK BEGINNING 1 WK POST CARCINOGEN TREATMENT (STUDY DURATION: 32 WK), Strain/Sex: F344/MALE, Target Tissue: Type of Lesion: COLON: ADENOMA, Dose [Carcinogen]: 15 MG/KG BW 1/WK FOR 2 WK, Promoter: NONE USED): 77%, 20%, 74%, p<0.05
- tumour outcome (control, treated, inhibition, significance) (Carcinogen: AZOXYMETHANE, 25843-45-2, 2000 PPM IN DIET FOR 29 WK BEGINNING 1 WK POST CARCINOGEN TREATMENT (STUDY DURATION: 32 WK), Strain/Sex: F344/MALE, Target Tissue: Type of Lesion: COLON: CARCINOMA, Dose [Carcinogen]: 15 MG/KG BW 1/WK FOR 2 WK, Promoter: NONE USED): 53%, 10%, 81%, p<0.05
- tumour outcome (control, treated, inhibition, significance) (Carcinogen: N-BUTYL-N-(N-HYDROXYBUTYL)NITROSAMINE [3817-11-6], 600 MG/KG IN DIET FOR 6 MONTHS BEGINNING 1 WK PRIOR TO FIRST CARCINOGEN DOSE (STUDY DURATION: 6 MONTHS), Strain/Sex: F344/FEMALE, Target Tissue: Type of Lesion: URINARY BLADDER: CARCINOMA, Dose [Carcinogen]: 150 MG IN 20% ETHANOL 2X/WK FOR 8 WK (STUDY DURATION: 6 MONTHS), Promoter: NONE): 27%, 30%, -11%, not significant
- tumour outcome (control, treated, inhibition, significance) (Carcinogen: N-BUTYL-N-(N-HYDROXYBUTYL)NITROSAMINE [3817-11-6], 600 MG/KG IN DIET FOR 6 MONTHS BEGINNING 1 WK PRIOR TO FIRST CARCINOGEN DOSE (STUDY DURATION: 6 MONTHS), Strain/Sex: F344/FEMALE, Target Tissue: Type of Lesion: URINARY BLADDER: PAPILLOMA, Dose [Carcinogen]: 150 MG IN 20% ETHANOL 2X/WK FOR 8 WK (STUDY DURATION: 6 MONTHS), Promoter: NONE): 60%, 60%, 0%, not significant
- tumour outcome (control, treated, inhibition, significance) (Carcinogen: N-BUTYL-N-(N-HYDROXYBUTYL)NITROSAMINE [3817-11-6], 800 MG/KG IN DIET FOR 6 MONTHS BEGINNING 1 WK PRIOR TO FIRST CARCINOGEN DOSE (STUDY DURATION: 6 MONTHS), Strain/Sex: F344/FEMALE, Target Tissue: Type of Lesion: URINARY BLADDER: CARCINOMA, Dose [Carcinogen]: 150 MG IN 20% ETHANOL 2X/WK FOR 8 WK (STUDY DURATION: 6 MONTHS), Promoter: NONE): 27%, 23%, 15%, not significant
- tumour outcome (control, treated, inhibition, significance) (Carcinogen: N-BUTYL-N-(N-HYDROXYBUTYL)NITROSAMINE [3817-11-6], 800 MG/KG IN DIET FOR 6 MONTHS BEGINNING 1 WK PRIOR TO FIRST CARCINOGEN DOSE (STUDY DURATION: 6 MONTHS), Strain/Sex: F344/FEMALE, Target Tissue: Type of Lesion: URINARY BLADDER: PAPILLOMA, Dose [Carcinogen]: 150 MG IN 20% ETHANOL 2X/WK FOR 8 WK (STUDY DURATION: 6 MONTHS), Promoter: NONE): 60%, 43%, 28%, not significant
- tumour outcome (control, treated, inhibition, significance) (Carcinogen: N-BUTYL-N-(N-HYDROXYBUTYL)NITROSAMINE [3817-11-6], 1000 MG/KG IN DIET FOR 6 MONTHS BEGINNING 1 WK PRIOR TO FIRST CARCINOGEN DOSE (STUDY DURATION: 6 MONTHS), Strain/Sex: F344/FEMALE, Target Tissue: Type of Lesion: URINARY BLADDER: CARCINOMA, Dose [Carcinogen]: 150 MG IN 20% ETHANOL 2X/WK FOR 8 WK (STUDY DURATION: 6 MONTHS), Promoter: NONE): 27%, 14%, 48%, not significant
- tumour outcome (control, treated, inhibition, significance) (Carcinogen: N-BUTYL-N-(N-HYDROXYBUTYL)NITROSAMINE [3817-11-6], 1000 MG/KG IN DIET FOR 6 MONTHS BEGINNING 1 WK PRIOR TO FIRST CARCINOGEN DOSE (STUDY DURATION: 6 MONTHS), Strain/Sex: F344/FEMALE, Target Tissue: Type of Lesion: URINARY BLADDER: PAPILLOMA, Dose [Carcinogen]: 150 MG IN 20% ETHANOL 2X/WK FOR 8 WK (STUDY DURATION: 6 MONTHS), Promoter: NONE): 60%, 38%, 37%, not significant
- tumour outcome (control, treated, inhibition, significance) (Carcinogen: N-BUTYL-N-(N-HYDROXYBUTYL)NITROSAMINE [3817-11-6], 1200 MG/KG IN DIET FOR 6 MONTHS BEGINNING 1 WK PRIOR TO FIRST CARCINOGEN DOSE (STUDY DURATION: 6 MONTHS), Strain/Sex: F344/FEMALE, Target Tissue: Type of Lesion: URINARY BLADDER: CARCINOMA, Dose [Carcinogen]: 150 MG IN 20% ETHANOL 2X/WK FOR 8 WK (STUDY DURATION: 6 MONTHS), Promoter: NONE): 27%, 7%, 74%, not significant
- tumour outcome (control, treated, inhibition, significance) (Carcinogen: N-BUTYL-N-(N-HYDROXYBUTYL)NITROSAMINE [3817-11-6], 1200 MG/KG IN DIET FOR 6 MONTHS BEGINNING 1 WK PRIOR TO FIRST CARCINOGEN DOSE (STUDY DURATION: 6 MONTHS), Strain/Sex: F344/FEMALE, Target Tissue: Type of Lesion: URINARY BLADDER: PAPILLOMA, Dose [Carcinogen]: 150 MG IN 20% ETHANOL 2X/WK FOR 8 WK (STUDY DURATION: 6 MONTHS), Promoter: NONE): 60%, 27%, 55%, not significant
